# Source: US11530222B2, “Substituted pyrrolopyrimidine and pyrazolopyrimidine as Bruton's tyrosine kinase (BTK) degraders” (ACCUTAR BIOTECHNOLOGY INC., priority 2021, dated 2022)
# What was measured:
# BTK = target: T1, BTK (Homo sapiens, UniProt Q06187); experiment: BTK degradative activity in a RAMOS cell line (Western blot); type: cell-based; conditions: 6 hours after administration, read-out: RAMOS BTK Degradation DC50
# T1 construct: BTK Degradative Activity of Exemplary Compounds of the Present Disclosure in a RAMOS Cell Line; host or cells: RAMOS
# Outline: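 Ramos cells in RPMI with 10% FBS were treated with compound in DMSO at various concentrations for 6 h at 37 °C. BTK was measured by Western blot against GAPDH with infrared fluorescent detection and band quantification. DC50 is the concentration at which 50% of BTK is degraded.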
# REC-1 cells = experiment: Growth inhibitory activity in BTK-dependent REC-1 cell line (CellTiter-Glo); type: cell-based; conditions: Homo sapiens, Rec1, 144 h, 6 days after administration, read-out: REC1 Cellular Grwoth Inhibition IC50
# Procedure: REC-1 (ATCC) and REC-1 BTK^C481S cells were plated in 96-well plates at 8,000 cells/well in 90 ul of RPMI growth medium containing 10% heat-inactivated FBS and 1× Penicillin Streptomycin, and then incubated at 37° C. overnight. The following day, the test compound was administered to the cells by using 10× compound stock solution prepared in growth medium at various concentrations. After administration of the compound, cells were then incubated at 37° C. for 6 days. Before CellTiter-Glo assay, the plates were equilibrated at room temperature for approximately 10 minutes. 100 ul of CellTiter-Glo® Reagent (Promega) was added to each well. The plates were then incubated at room temperature for 10 minutes and luminescence was recorded by EnSpire plate reader (PerkinElmer).
# The GI50 values (i.e., the concentration of test compound at which 50% of cell growth are inhibited) were calculated. A designation of “A” corresponds to a […] value less than 20 nM. A designation of “B” corresponds to a […] value greater than or equal to 20 nM and less than 200 nM. A designation of “C” corresponds to a […] value greater than or equal to 200 nM.
# T1 sequence (Q06187 whole entry): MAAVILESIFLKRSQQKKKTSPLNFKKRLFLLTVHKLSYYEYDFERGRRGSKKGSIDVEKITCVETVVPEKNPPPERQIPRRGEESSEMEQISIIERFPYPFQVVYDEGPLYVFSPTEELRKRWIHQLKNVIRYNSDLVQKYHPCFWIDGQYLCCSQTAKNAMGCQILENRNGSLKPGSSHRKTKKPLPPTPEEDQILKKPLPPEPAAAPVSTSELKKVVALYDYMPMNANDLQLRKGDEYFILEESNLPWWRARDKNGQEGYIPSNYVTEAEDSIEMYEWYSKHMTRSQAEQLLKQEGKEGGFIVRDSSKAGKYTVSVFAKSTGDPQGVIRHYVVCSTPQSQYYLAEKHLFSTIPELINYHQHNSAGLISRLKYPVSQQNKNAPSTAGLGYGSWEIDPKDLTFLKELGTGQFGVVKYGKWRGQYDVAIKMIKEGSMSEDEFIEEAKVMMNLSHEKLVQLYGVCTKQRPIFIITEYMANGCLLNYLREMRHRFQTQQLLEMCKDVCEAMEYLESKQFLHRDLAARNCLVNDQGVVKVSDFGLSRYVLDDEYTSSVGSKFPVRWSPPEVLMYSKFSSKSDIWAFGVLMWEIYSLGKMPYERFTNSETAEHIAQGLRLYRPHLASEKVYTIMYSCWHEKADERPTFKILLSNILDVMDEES
SMILES,DC50 (BTK) [nM],IC50 (REC-1 cells) [nM]
"COc1ccc(F)cc1C(=O)NCc1ccc(-c2nn(-c3ccc(N4CCC(CN5CCN(c6ccc7c(c6)C(=O)N(C6CCC(=O)NC6=O)C7=O)CC5)CC4)c(F)c3)c3ncnc(N)c23)cc1 (stereo not drawn) [Compound 50, N-(4-(4-amino-1-(4-(4-((4-(2-(2,6-dioxopiperidin-3-yl)-1,3-dioxoisoindolin-5-yl)piperazin-1-yl)methyl)piperidin-1-yl)-3-fluorophenyl)-1H-pyrazolo[3,4-d]pyrimidin-3-yl)benzyl)-5-fluoro-2-methoxybenzamide]",10 to 100,< 20
"COc1ccc(F)cc1C(=O)NCc1ccc(-c2nn(-c3ccc(N4CCC(CN5CCN(c6cc7c(cc6F)C(=O)N([C@H]6CCC(=O)NC6=O)C7)CC5)CC4)c(F)c3)c3ncnc(N)c23)cc1 [Compound 51, (S)—N-(4-(4-amino-1-(4-(4-((4-(2-(2,6-dioxopiperidin-3-yl)-6-fluoro-1-oxoisoindolin-5-yl)piperazin-1-yl)methyl)piperidin-1-yl)-3-fluorophenyl)-1H-pyrazolo[3,4-d]pyrimidin-3-yl)benzyl)-5-fluoro-2-methoxybenzamide]",< 10,< 20
"COc1ccc(F)cc1C(=O)NCc1ccc(-c2nn(C3CCN(c4ccc(CN5CCN(c6ccc7c(c6)CN([C@H]6CCC(=O)NC6=O)C7=O)CC5)cn4)CC3)c3ncnc(N)c23)cc1 [Compound 52, (S)—N-(4-(4-amino-1-(1-(5-((4-(2-(2,6-dioxopiperidin-3-yl)-1-oxoisoindolin-5-yl)piperazin-1-yl)methyl)pyridin-2-yl)piperidin-4-yl)-1H-pyrazolo[3,4-d]pyrimidin-3-yl)benzyl)-5-fluoro-2-methoxybenzamide]",< 10,< 20
"COc1ccc(F)cc1C(=O)NCc1ccc(-c2nn(C3CCN(c4ccc(CN5CCN(c6ccc7c(c6)CN([C@H]6CCC(=O)NC6=O)C7=O)CC5)cc4)CC3)c3ncnc(N)c23)cc1 [Compound 53, (S)—N-(4-(4-amino-1-(1-(4-((4-(2-(2,6-dioxopiperidin-3-yl)-1-oxoisoindolin-5-yl)piperazin-1-yl)methyl)phenyl)piperidin-4-yl)-1H-pyrazolo[3,4-d]pyrimidin-3-yl)benzyl)-5-fluoro-2-methoxybenzamide]",< 10,< 20
"COc1ccc(F)cc1C(=O)NCc1ccc(-c2nn(C3CN(c4ccc(CN5CCN(c6ccc7c(c6)CN([C@H]6CCC(=O)NC6=O)C7=O)CC5)cn4)C3)c3ncnc(N)c23)cc1 [Compound 54, (S)—N-(4-(4-amino-1-(1-(5-((4-(2-(2,6-dioxopiperidin-3-yl)-1-oxoisoindolin-5-yl)piperazin-1-yl)methyl)pyridin-2-yl)azetidin-3-yl)-1H-pyrazolo[3,4-d]pyrimidin-3-yl)benzyl)-5-fluoro-2-methoxybenzamide]",< 10,< 20
"COc1ccc(F)cc1C(=O)NCc1ccc(-c2nn(C3CCN(C(=O)CCCCN4CCN(c5ccc6c(c5)CN([C@H]5CCC(=O)NC5=O)C6=O)CC4)C3)c3ncnc(N)c23)cc1 (stereo partly drawn) [Compound 55, N-(4-(4-amino-1-(1-(5-(4-(2-((S)-2,6-dioxopiperidin-3-yl)-1-oxoisoindolin-5-yl)piperazin-1-yl)pentanoyl)pyrrolidin-3-yl)-1H-pyrazolo[3,4-d]pyrimidin-3-yl)benzyl)-5-fluoro-2-methoxybenzamide]",10 to 100,≥ 200
"COc1ccc(F)cc1C(=O)NCc1ccc(-c2nn(C3CCN(c4ccc(CN5CCN(c6ccc7c(c6)CN([C@H]6CCC(=O)NC6=O)C7=O)CC5)nc4)C3)c3ncnc(N)c23)cc1 (stereo partly drawn) [Compound 58, N-(4-(4-amino-1-(1-(6-((4-(2-((S)-2,6-dioxopiperidin-3-yl)-1-oxoisoindolin-5-yl)piperazin-1-yl)methyl)pyridin-3-yl)pyrrolidin-3-yl)-1H-pyrazolo[3,4-d]pyrimidin-3-yl)benzyl)-5-fluoro-2-methoxybenzamide]",≥ 100,≥ 200
"COc1ccc(F)cc1C(=O)NCc1ccc(-c2nn(C3CCN(c4ccc(CN5CCN(c6ccc7c(c6)CN([C@H]6CCC(=O)NC6=O)C7=O)CC5)cc4)C3)c3ncnc(N)c23)cc1 (stereo partly drawn) [Compound 60, N-(4-(4-amino-1-(1-(4-((4-(2-((S)-2,6-dioxopiperidin-3-yl)-1-oxoisoindolin-5-yl)piperazin-1-yl)methyl)phenyl)pyrrolidin-3-yl)-1H-pyrazolo[3,4-d]pyrimidin-3-yl)benzyl)-5-fluoro-2-methoxybenzamide]",≥ 100,20 to 200
"COc1ccc(F)cc1C(=O)NCc1ccc(-c2nn(C3CN(c4ccc(CN5CCN(c6ccc7c(c6)CN([C@H]6CCC(=O)NC6=O)C7=O)CC5)cc4)C3)c3ncnc(N)c23)cc1 [Compound 61, (S)—N-(4-(4-amino-1-(1-(4-((4-(2-(2,6-dioxopiperidin-3-yl)-1-oxoisoindolin-5-yl)piperazin-1-yl)methyl)phenyl)azetidin-3-yl)-1H-pyrazolo[3,4-d]pyrimidin-3-yl)benzyl)-5-fluoro-2-methoxybenzamide]",< 10,< 20
"COc1ccc(F)cc1C(=O)NCc1ccc(-c2nn(C3CN(C(=O)c4ccc(CN5CCN(c6ccc7c(c6)CN([C@H]6CCC(=O)NC6=O)C7=O)CC5)cc4)C3)c3ncnc(N)c23)cc1 [Compound 62, (S)—N-(4-(4-amino-1-(1-(4-((4-(2-(2,6-dioxopiperidin-3-yl)-1-oxoisoindolin-5-yl)piperazin-1-yl)methyl)benzoyl)azetidin-3-yl)-1H-pyrazolo[3,4-d]pyrimidin-3-yl)benzyl)-5-fluoro-2-methoxybenzamide]",< 10,20 to 200
COc1ccc(F)cc1C(=O)NCc1ccc(-c2nn(C3CCN(C(=O)c4ccc(CN5CCN(c6ccc7c(c6)CN([C@H]6CCC(=O)NC6=O)C7=O)CC5)cc4)C3)c3ncnc(N)c23)cc1 (stereo partly drawn) [Compound 63],< 10,20 to 200
"COc1ccc(F)cc1C(=O)NCc1ccc(-c2nn(C3CCN(C(=O)CCCCCN4CCN(c5ccc6c(c5)CN([C@H]5CCC(=O)NC5=O)C6=O)CC4)C3)c3ncnc(N)c23)cc1 (stereo partly drawn) [Compound 64, N-(4-(4-amino-1-(1-(6-(4-(2-((S)-2,6-dioxopiperidin-3-yl)-1-oxoisoindolin-5-yl)piperazin-1-yl)hexanoyl)pyrrolidin-3-yl)-1H-pyrazolo[3,4-d]pyrimidin-3-yl)benzyl)-5-fluoro-2-methoxybenzamide]",< 10,20 to 200
"COc1ccc(C(=O)N2CCC(N3CCC(CC(=O)N4CCC[C@@H](Nc5ncnc6[nH]cc(C(=O)c7ccc(Oc8ccccc8)cc7Cl)c56)C4)CC3)CC2)cc1N1CCC(=O)NC1=O [Compound 77, (R)-1-(5-(4-(2-(3-((5-(2-chloro-4-phenoxybenzoyl)-7H-pyrrolo[2,3-d]pyrimidin-4-yl)amino)piperidin-1-yl)-2-oxoethyl)-[1,4′-bipiperidine]-1′-carbonyl)-2-methoxyphenyl) dihydropyrimidine-2,4(1H,3H)-dione]",≥ 100,–
"COc1ccc(C(=O)N2CCN(CCCCCCC(=O)N3CCC(Nc4ncnc5[nH]cc(C(=O)c6ccc(Oc7ccccc7)cc6Cl)c45)CC3)CC2)cc1N1CCC(=O)NC1=O [Compound 78, 1-(5-(4-(7-(4-((5-(2-chloro-4-phenoxybenzoyl)-7H-pyrrolo[2,3-d]pyrimidin-4-yl)amino)piperidin-1-yl)-7-oxoheptyl)piperazine-1-carbonyl)-2-methoxyphenyl)dihydropyrimidine-2,4(1H,3H)-dione]",< 10,–
"COc1ccc(C(=O)N2CCCN(Cc3ccc(C(=O)N4CCC(Nc5ncnc6[nH]cc(C(=O)c7ccc(Oc8ccccc8)cc7Cl)c56)CC4)cc3)CC2)cc1N1CCC(=O)NC1=O [Compound 79, 1-(5-(4-(4-(4-((5-(2-chloro-4-phenoxybenzoyl)-7H-pyrrolo[2,3-d]pyrimidin-4-yl)amino)piperidine-1-carbonyl)benzyl)-1,4-diazepane-1-carbonyl)-2-methoxyphenyl)dihydropyrimidine-2,4(1H,3H)-dione]",≥ 100,–
"COc1ccc(C(=O)N2CCN(Cc3ccc(C(=O)N4CCC(Nc5ncnc6[nH]cc(C(=O)c7ccc(Oc8ccccc8)cc7Cl)c56)CC4)cc3)CC2)cc1N1CCC(=O)NC1=O [Compound 80, 1-(5-(4-(4-(4-((5-(2-chloro-4-phenoxybenzoyl)-7H-pyrrolo[2,3-d]pyrimidin-4-yl)amino)piperidine-1-carbonyl)benzyl)piperazine-1-carbonyl)-2-methoxyphenyl)dihydropyrimidine-2,4(1H,3H)-dione]",≥ 100,–
"COc1ccc(F)cc1C(=O)NCc1ccc(-c2nn(C3CCN(c4ccc(CN5CCN(c6ccc7c(c6)CN([C@H]6CCC(=O)NC6=O)C7=O)CC5)cn4)C3)c3ncnc(N)c23)cc1 (stereo partly drawn) [Compound 92, N-(4-(4-amino-1-(1-(5-((4-(2-((S)-2,6-dioxopiperidin-3-yl)-1-oxoisoindolin-5-yl)piperazin-1-yl)methyl)pyridin-2-yl)pyrrolidin-3-yl)-1H-pyrazolo[3,4-d]pyrimidin-3-yl)benzyl)-5-fluoro-2-methoxybenzamide]",< 10,20 to 200
